Results from patent US10611751B2, “Dopamine D1 receptor positive allosteric modulators” (Eli Lilly and Company, priority 2018, dated 2020).
Like-named read-outs stand apart in the source and are kept apart here.

Legend:
[1] = test system: normal rats; experiment: In vivo tolerability in normal rats; settings: broad dose range
Text: Compounds of the invention, for instance Example 1, show an advantageous combination of pharmacological properties, such as potentiation of human D1 receptor signaling in response to dopamine, high oral in vivo availabilty, in vivo efficacy in locomotor activation of animals that are habituated to the environment, and a favorable toxicity profile in preclinical testing. […].

[2] = Plasma and Brain Levels after oral dosing; type: in vivo; settings: fed
Procedure: Example 1 is orally dosed to male mouse from 1 mg/kg to 30 mg/kg in fed condition, and the plasma and brain concentration are determined 1.5 hr post-dose. The fraction unbound of the compound is determined in vitro as described previously (Zamek-Gliszczynski M J, Ruterbories K J, Ajamie R T, Wickremsinhe E R, Pothuri L, Rao M V, Basavanakatti V N, Pinjari J, Ramanathan V K, Chaudhary A K (2011) Validation of 96-well equilibrium dialysis with non-radiolabeled drug for definitive measurement of protein binding and application to clinical development of highly-bound drugs. J Pharm Sci 100: 2498-2507). The ratio (Kpuu) of unbound brain concentration (Cu,brain) vs. unbound plasma concertation (Cu,plasma) is determined as described previously (Raub T J, Wishart G N, Kulanthaivel P, Staton B A, Ajamie R T, Sawada G A, Gelbert L M, Shannon H E, Sanchez-Martinez C, De Dios A (2015) Brain Exposure of Two Selective Dual CDK4 and CDK6 Inhibitors and the Antitumor Activity of CDK4 and CDK6 Inhibition in Combination with Temozolomide in an Intracranial Glioblastoma Xenograft. Drug Metab Dispos. 43:1360-71). The data presented below for Example 1 are averages from 3 animals at each dose. “Con.” refers to concentration. […]

[3] = 3 mg/kg oral, male mouse, 1.5 hr
[4] = 3 mg/kg oral, male mouse, 1.5 hr, read-out: Brain con.
[5] = 3 mg/kg oral, male mouse, 1.5 hr, read-out: Cu, brain
[6] = 3 mg/kg oral, male mouse, 1.5 hr, read-out: Cu, plasma
[7] = 10 mg/kg oral, male mouse, 1.5 hr
[8] = 10 mg/kg oral, male mouse, 1.5 hr, read-out: Brain con.
[9] = 10 mg/kg oral, male mouse, 1.5 hr, read-out: Cu, brain
[10] = 10 mg/kg oral, male mouse, 1.5 hr, read-out: Cu, plasma
[11] = 30 mg/kg oral, male mouse, 1.5 hr
[12] = 30 mg/kg oral, male mouse, 1.5 hr, read-out: Brain con.
[13] = 30 mg/kg oral, male mouse, 1.5 hr, read-out: Cu, brain
[14] = 30 mg/kg oral, male mouse, 1.5 hr, read-out: Cu, plasma
[15] = brain/plasma, 3 mg/kg oral, male mouse, 1.5 hr, read-out: Kpuu (Cu,brain vs. Cu,plasma)
[16] = brain/plasma, 10 mg/kg oral, male mouse, 1.5 hr, read-out: Kpuu (Cu,brain vs. Cu,plasma)
[17] = brain/plasma, 30 mg/kg oral, male mouse, 1.5 hr, read-out: Kpuu (Cu,brain vs. Cu,plasma)

| SMILES | Plasma con. [2, 3] | concentration at 1 h [2, 4] | concentration at 1 h [2, 5] | concentration at 1 h [2, 6] | Plasma con. [2, 7] | concentration at 1 h [2, 8] | concentration at 1 h [2, 9] | concentration at 1 h [2, 10] | Plasma con. [2, 11] | concentration at 1 h [2, 12] | concentration at 1 h [2, 13] | concentration at 1 h [2, 14] | Kp uu [2, 15] | Kp uu [2, 16] | Kp uu [2, 17] | other results |
| --- | --- | --- | --- | --- | --- | --- | --- | --- | --- | --- | --- | --- | --- | --- | --- | --- |
| C[C@H]1c2cccc(-c3cnn(C)c3)c2C[C@H](CO)N1C(=O)Cc1c(Cl)cccc1Cl [Example 1, 2-(2,6-dichlorophenyl)-1-((1S,3R)-3-(hydroxymethyl)-1-methyl-5-(1-methyl-1H-pyrazol-4-yl)-3,4-dihydroisoquinolin-2(1H)-yl)ethan-1-one] | 86.6 nM | 60 nM | 1.5 nM | 2.34 nM | 120 nM | 57.6 nM | 1.44 nM | 3.23 nM | 1660 nM | 794 nM | 19.9 nM | 44.9 nM | 1.06 | 0.44 | 0.65 | Tolerability / toxicity in vivo (in words) [1]: generally well tolerated; Cu, brain ([2]; 1 mg/kg oral, male mouse, 1.5 hr): BQL; Brain con. ([2]; 1 mg/kg oral, male mouse, 1.5 hr, BQL = below 1 ng/mg tissue): BQL; Kp uu at 1.5 h ([2]; brain/plasma, 6 mg/kg oral, male mouse, read-out: Kpuu (Cu,brain vs. Cu,plasma)): 0.65; concentration at 1.5 h ([2]; male, mouse, brain, oral, 6 mg/kg, 6 mg/kg oral, read-out: Brain con.): 129 nM; concentration at 1.5 h ([2]; male, mouse, brain, oral, 6 mg/kg, 6 mg/kg oral, read-out: Cu, brain): 3.22 nM; concentration at 1.5 h ([2]; male, mouse, plasma, oral, 1 mg/kg, 1 mg/kg oral, read-out: Cu, plasma): 0.182 nM; concentration at 1.5 h ([2]; male, mouse, plasma, oral, 1 mg/kg, 1 mg/kg oral, read-out: Plasma con.): 6.74 nM; concentration at 1.5 h ([2]; male, mouse, plasma, oral, 6 mg/kg, 6 mg/kg oral, read-out: Cu, plasma): 4.67 nM; concentration at 1.5 h ([2]; male, mouse, plasma, oral, 6 mg/kg, 6 mg/kg oral, read-out: Plasma con.): 173 nM |
| C[C@H]1c2cccc(-c3cn[nH]c3)c2C[C@H](CO)N1C(=O)Cc1c(Cl)cccc1Cl [Example 8, 2-(2,6-dichlorophenyl)-1-((1S,3R)-3-(hydroxymethyl)-1-methyl-5-(1H-pyrazol-4-yl)-3,4-dihydroisoquinolin-2(1H)-yl)ethan-1-one] | 87.4 nM | 66.3 nM | 0.66 nM | 2.71 nM | 901 nM | 267 nM | 2.67 nM | 27.9 nM | 10321 nM | 2391 nM | 23.9 nM | 320 nM | 0.24 | 0.1 | 0.07 | Kp uu at 1 h ([2]; brain/plasma, 20 mg/kg oral, male mouse, 1.5 hr, read-out: Kpuu (Cu,brain vs. Cu,plasma)): 0.1; Kp uu at 1 h ([2]; brain/plasma, 60 mg/kg oral, male mouse, 1.5 hr, read-out: Kpuu (Cu,brain vs. Cu,plasma)): 0.08; concentration at 1 h ([2]; male, mouse, brain, oral, 20 mg/kg, 20 mg/kg oral, 1.5 hr, read-out: Brain con.): 721 nM; concentration at 1 h ([2]; male, mouse, brain, oral, 20 mg/kg, 20 mg/kg oral, 1.5 hr, read-out: Cu, brain): 7.21 nM; concentration at 1 h ([2]; male, mouse, brain, oral, 60 mg/kg, 60 mg/kg oral, 1.5 hr, read-out: Brain con.): 5000 nM; concentration at 1 h ([2]; male, mouse, brain, oral, 60 mg/kg, 60 mg/kg oral, 1.5 hr, read-out: Cu, brain): 50 nM; concentration at 1 h ([2]; male, mouse, plasma, oral, 20 mg/kg, 20 mg/kg oral, 1.5 hr, read-out: Cu, plasma): 75.7 nM; concentration at 1 h ([2]; male, mouse, plasma, oral, 20 mg/kg, 20 mg/kg oral, 1.5 hr, read-out: Plasma con.): 2440 nM; concentration at 1 h ([2]; male, mouse, plasma, oral, 60 mg/kg, 60 mg/kg oral, 1.5 hr, read-out: Cu, plasma): 622 nM; concentration at 1 h ([2]; male, mouse, plasma, oral, 60 mg/kg, 60 mg/kg oral, 1.5 hr, read-out: Plasma con.): 20100 nM |
